The results in this text go back to patent US4022842A, “Bibenzyl compounds” (Rikagaku Kenkyusho, priority 1972, dated 1977).

Values after ≈ are worked out from the molar mass of the structure shown. Where two headings read alike, the source gives them in different places.

The test system of one data set is oats coleoptile. The data set is described as follows: Growth inhibition in oats coleoptile sections (Example 4, Table 1). Also noted: species or system Avena sativa L. The note with it: for IC50: Avena sativa. On the procedure:
A compound illustrated in Table 1 was dissolved in dimethylformamide and the solution was diluted to desired concentrations with water containing 2% of sucrose. In control test dimethylformamide was applied in the same amount as that of treated groups. This solvent gives no phytotoxicity to plants to be tested if the content in water is 1% or less. The prepared liquors were poured into culture dishes of 3 cm diameter, the amount of the medium poured into one dish being 2 ml. Sections of 5 mm in length cut from a coleoptiles of oats (Avena sativa L.) which have been grown in the dark were floated on the test media in the culture dishes and cultured at 25° C. for 20 hours in the dark to determine the growth-inhibition degrees.
In the control group, the coleoptile elongated by about 5 mm during the experiment.

The subject of a further data set is lettuce seeds. The data set can be described thus: Inhibition of germination of lettuce seeds, 50% inhibition (Example 5, Table 2). The note with it: 1% dimethylformamide; for IC50: Lactuca sativa, 48 h. It counts as in vivo, Lactuca sativa L. On the procedure: Every compound shown in Table 1 was respectively dissolved at various concentrations in distilled water containing 1% of dimethylformamide, and 3 ml each of the resulting solutions was poured into a culture dish of 6 cm diameter in which 2 filter papers were spread. About 100 seeds (non-dormant ware head seeds) of lettuce (Lactuca sativa L.) were shown in each dish, and they were allowed to stand at 23° C. in the dark for 2 days. Germination percentages were determined and plotted against the concentrations of the compound tested. From the graphs obtained the concentration to give 50% inhibition was determined. The definition of inhibition rate is given in the following formula: [formula] Usually the germination percentage of the untreated control lot was about 95%.

A further data set can be described thus: Solubility. It counts as physicochemical.
For data set [1], the system named is Bulbils of yam. The data set can be described thus: Germination (sprouting) of yam bulbils awakened from dormancy (Example 6, Table 3). The format is in vivo, Dioscorea batatas Decne. Conditions: 300 μg/ml; 23° C., light of 1800 luxes, 2 weeks; untreated control 80. On the procedure: Bulbils (fleshy buds for breeding formed on stems) of yam (Dioscorea batatas Decne.) were stored at a low temperature of 5° C. for 3 months and awakened from hibernation. These fleshy buds were treated with the agricultural chemical of this invention in the following manner to lead them to hibernation again.
Every active ingredient compound of this invention shown in the following Table 3 was dissolved emulsified in distilled water containing 1% of dimethylformamide and 0.05% of Tween 20. 25 ml of the resulting liquor was poured into a culture dish of 9 cm diameter in which absorbent cotton was spread, and 30 of bulbis which had been subjected to the above low temperature treatment and awakened from dormancy were sown on the dish and they were allowed to sprout at 23° C. under light of 1800 luxes for 2 weeks.

In data set [2] the test system is bulbils of yam. The data set is described as follows: Sprouting of yam bulbils in dark or light (Example 7, Table 4). The format is in vivo, Discorea batatas Decne. The note with it: 23° C., 20 days. The method, then:
4-Hydroxy-2,6,7-trimethoxyphenanthrene and 3,3'-dihydroxy-5-methoxybibenzylwere respectively dissolved at various concentrations in water containing 0.05% of Tween 20, and 30 ml each of the resulting solutions were poured into culture dishes of 9 cm in diameter containing 1 g of absorbent cotton.
Thirty bulbils of yam (Discorea batatas Decne.) which had been awakened from dormancy were planted in each of the so arranged culture dishes, and the germination test was carried out at 23° C. either in the dark or in the light. […]

The test system of the next data set is seeds of a lettuce. The data set is described as follows: Germination ratio of lettuce seeds (Example 8, Table 5). It counts as in vivo, Lactuca sativa L. Conditions: for Germination Ratio: 23° C., 2 days, untreated control 90. On the procedure:
4-Hydroxy-2,6,7-trimethoxyphenanthrene and 3,3'-dihydroxy-5-methoxybibenzylwere respectively dissolved in water containing 0.05% of Tween 20 and 1% of dimethylformamide, and each of the resulting solution was poured into a culture dish, 6 cm in diameter, in which 2 layers of filter paper were spread to form a germination bed. 100 seeds of a lettuce (Lactuca sativa L.) were sown on the germination bed and cultivation was conducted for 2 days at 23° C. […] [formula]

The test system of a further data set is oats coleoptiles. The data set is described as follows: Growth inhibition of oats coleoptile pieces with indoleacetic acid (Example 9, Table 6). Also noted: species or system Avena sativa L. The note with it: Avena sativa, 18 h, read-out: Growth Inhibition ratio. On the procedure:
Oats (Avena sativa L.) were allowed to germinate under a weak red light at 25° C. and 3 days after germination sections of […] in length were cut from coleoptiles about 25 mm in length. 4-Hydroxy-2,6,7-trimethoxyphenanthrene or 3,3-dihydroxy-5-methoxybibenzyl was dissolved in a culture medium comprising 0.1 mg/l of indoleacetic acid, 0.05% of Tween 20 and 2% of sucrose, the balance being water. Ten of the above cut-out coleoptile pieces were flated on the resulting culture medium and cultivation was conducted at 25° C. for 18 hours to examine the growth state and the results shown in Table 6 were obtained.

In the next data set the test system is Seedings of lettuce. The data set is described as follows: Growth inhibition of lettuce seedling stems (hypocotyls) (Example 10, Table 7). Conditions: Lactuca sativa, 72 h, read-out: Growth Inhibition Ratio. The format is in vivo, Lactuca sativa L. On the procedure: 4-Hydroxy-2,6,7-trimethoxyphenanthrene or 3,3'-dihydroxy-5-methoxybibenzyl was dissolved in acetone, and the resulting solution was placed in culture dishes in which 2 layers of filter paper were spread so as to give required amounts of the test compound. After the acetone was removed by evaporation, Hoagland's nutrient solution containing 0.05% of Tween 20 was poured into the culture dishes. Seedings of lettuce (Lactuca sativa L.), which had been germinated in a different place, were transplanted to the culture dishes and cultivation was carried out in a light place at 23° C. for 3 days. Then, the lengths of the stems (hypocotyls) were measured to determined the growth inhibition ratio.

The mark [3] stands for this setting: 5 mm sections, 25° C., 20 hours, dark, read-out: Growth Inhibition in oats coleoptile (concentration giving 50% inhibition).
Setting [4] is: 23° C., dark, 2 days, read-out: Inhibition of Germination of Lettuce Seeds, Concentration Giving 50% Inhibition.
Where [5] appears, read: 20 h, read-out: Growth Inhibition in oats coleoptile (concentration giving 50% inhibition), 5 mm sections, 25° C., 20 hours, dark.
Setting [6] is: read-out: Inhibition of Germination of Lettuce Seeds, Concentration Giving 50% Inhibition, 23° C., dark, 2 days.

For the molecule `COc1cc(O)cc(CCc2ccccc2)c1` [Compound 1, 3-hydroxy-5-methoxybibenzyl], the IC50 with oats coleoptile (setting [3]) came out at 80 µg/mL (≈ 350 µM); in the data set with lettuce seeds (setting [4]), 60 µg/mL (≈ 263 µM).
Regarding `COc1cc(CCc2ccccc2O)c(O)c(OC)c1` [Compound 2, 2,2'-dihydroxy-3,5-dimethoxybibenzyl], the IC50 with oats coleoptile (setting [3]) and with lettuce seeds (setting [4]) was 100 µg/mL (≈ 365 µM) each time. For the same molecule, in the data set “Solubility” (ethanol, acetone, ethyl acetate and ether), the “Solubility in ordinary solvents” value is reported as “Soluble”. Besides, in “Solubility” (hexane), the Solubility in hexane result was “insoluble”. Moreover, the Solubility in water result in “Solubility” (water) is on record as “insoluble”.
As to `COc1cc(CCc2ccc(O)cc2)cc(O)c1OC` [Compound 3, 3,4'-dihydroxy-4,5-dimethoxybibenzyl], the IC50 in the data set with oats coleoptile (setting [3]) is 150 µg/mL (≈ 547 µM); in the data set on lettuce seeds (setting [4]), 120 µg/mL (≈ 437 µM). In the data set on Bulbils of yam [1], the “Germination Ratio” value is on record as 42%.
For `CC(=O)c1cc(CCc2ccccc2)c(O)cc1O` [Compound 4, 4,6-dihydroxy-3-acetyldibenzyl], the IC50 in the data set on oats coleoptile (setting [3]) and in the data set with lettuce seeds (setting [4]) was 90 µg/mL (≈ 351 µM) in each case. For the same molecule, the “Germination Ratio” value in the data set on Bulbils of yam [1] came to 63%.
Consider `Oc1ccc(CCc2ccccc2)c(O)c1` [Compound 5, 2,4-dihydroxybibenzyl], for which the IC50 turned out to be 110 µg/mL (≈ 513 µM) in the data set with oats coleoptile (setting [3]) and 90 µg/mL (≈ 420 µM) in the data set with lettuce seeds (setting [4]).
Regarding `Oc1c(Cl)cc(Cl)cc1CCc1cc(Cl)cc(Cl)c1O` [Compound 6, 3,5,3',5'-tetrachloro-2,2'-dihydroxybibenzyl], the IC50 in the data set with oats coleoptile (setting [3]) stood at 30 µg/mL (≈ 85.2 µM); in the data set with lettuce seeds (setting [4]), 10 µg/mL (≈ 28.4 µM). Besides, the “Germination Ratio” value with Bulbils of yam [1] worked out at 15%.
Regarding `COc1ccc(CCc2cc(O)cc(O)c2)cc1O` [Compound 7, 3,3',5'-trihydroxy-4-methoxybibenzyl], the IC50 in the data set with oats coleoptile (setting [3]) and in the data set on lettuce seeds (setting [4]) was 75 µg/mL (≈ 288 µM) throughout.
As for `COc1cc(OC)c2c(ccc3ccc(O)cc32)c1` [Compound 9, 2,4-dimethoxy-6-hydroxyphenanthrene], the IC50 with oats coleoptile (setting [5]) amounted to 130 µg/mL (≈ 511 µM); with lettuce seeds (setting [6]), 100 µg/mL (≈ 393 µM).
Regarding `COc1cc(O)c2c(ccc3cc(OC)c(OC)cc32)c1` [Compound 10, 4-hydroxy-2,6,7-trimethoxyphenanthrene], the IC50 in the data set on oats coleoptile (setting [5]) came to 90 µg/mL (≈ 317 µM); in the data set with lettuce seeds (setting [6]) it was 60 µg/mL (≈ 211 µM). The “Germination Ratio” value with Bulbils of yam [1] turned out to be 45%; with seeds of a lettuce (30 mg/l) it was 78%; in the data set with seeds of a lettuce (100 mg/l), 43%; with seeds of a lettuce (300 mg/l) it was 10%. Moreover, the “Sprouting Ratio” value is 46% in the data set on bulbils of yam [2] (100 mg/l, dark place, untreated control 56); 14% in the data set on bulbils of yam [2] (100 mg/l, light place, untreated control 44); 30% in the data set on bulbils of yam [2] (300 mg/l, dark place, untreated control 56); 8% with bulbils of yam [2] (300 mg/l, light place, untreated control 44); 23% with bulbils of yam [2] (1000 mg/l, dark place, untreated control 56). Also, the “Blight of germination-inhibited seeds” value in the data set with seeds of a lettuce (after treatment) was “not blighted”. For the same molecule, the “Germination after washing and transplanting” value with seeds of a lettuce (washed with water, transplanted on culture dish free of compound) is recorded as “complete germination”. The inhibition at 30 µg/mL in the data set with oats coleoptiles came to 16%; in the data set with Seedings of lettuce it was 13%. For the same molecule, the inhibition at 100 µg/mL with oats coleoptiles turned out to be 44%; with Seedings of lettuce, 45%. Moreover, the inhibition at 300 µg/mL stood at 79% with oats coleoptiles and 72% in the data set with Seedings of lettuce.
As to `COc1cc2ccc3cc(O)c(OC)c(OC)c3c2cc1O` [Compound 11, 2,6-dihydroxy-3,4,7-trimethoxyphenanthrene], the IC50 in the data set on oats coleoptile (setting [3]) and with lettuce seeds (setting [4]) was 100 µg/mL (≈ 333 µM) throughout. In the data set with Bulbils of yam [1], the “Germination Ratio” value stood at 50%.
As to `COc1cc2ccc3cc(O)c(O)cc3c2c(O)c1OC` [Compound 12, 4,6,7-trihydroxy-2,3-dimethoxyphenanthrene], the results for the IC50 in the data set with oats coleoptile (setting [5]) and with lettuce seeds (setting [6]) were 120 µg/mL (≈ 419 µM) and 140 µg/mL (≈ 489 µM), respectively.
As to `COc1cc(OC)c2c(ccc3ccc(O)cc32)c1` [Compound 13, 2,4-dimethoxy-6-hydroxyphenanthrene], in the data set on oats coleoptile (5 mm sections, 25° C., 20 hours, dark), the “Growth Inhibition in oats coleoptile (concentration giving 50% inhibition)” value turned out to be 90 µg/mL. In addition, in the data set on lettuce seeds (23° C., dark, 2 days), the “Inhibition of Germination of Lettuce Seeds, Concentration Giving 50% Inhibition” value was 80 µg/mL. The “Germination Ratio” value in the data set with Bulbils of yam [1] is 60%.
Consider `CC(=O)c1cc2ccccc2c2cc(Cl)ccc12` [Compound 14, 6-chloro-9-acetylphenanthrene], for which the IC50 in the data set on oats coleoptile (setting [5]) was found to be 70 µg/mL (≈ 275 µM); in the data set on lettuce seeds (setting [6]) it was 30 µg/mL (≈ 118 µM). In the data set on Bulbils of yam [1], the “Germination Ratio” value is given as 70%.
Turning to `CC(=O)c1ccc2c(c1)CCc1cc(O)c(C(C)=O)cc1-2` [Compound 15, 7-hydroxy-2,6-diacetyl-9,10-dihydrophenanthrene], the IC50 with oats coleoptile (setting [3]) is 130 µg/mL (≈ 464 µM); in the data set on lettuce seeds (setting [4]) it was 80 µg/mL (≈ 285 µM).
On to `Oc1cc(O)c2c(c1)CCc1cc(O)c(O)cc1-2` [Compound 16, 2,3,5,7-tetrahydroxy-9,10-dihydrophenanthrene], for which the IC50 with oats coleoptile (setting [3]) came to 150 µg/mL (≈ 614 µM); with lettuce seeds (setting [4]) it was 160 µg/mL (≈ 655 µM).
Turning to `COc1cc2c(cc1O)CCc1cc(OC)c(OC)c(O)c1-2` [Compound 17, 4,7-dihydroxy-2,3,6-trimethoxy-9,10-dihydrophenanthrene], the figures for the IC50 with oats coleoptile (setting [3]) and in the data set on lettuce seeds (setting [4]) were 200 µg/mL (≈ 662 µM) and 120 µg/mL (≈ 397 µM), respectively. Besides, the “Germination Ratio” value in the data set on Bulbils of yam [1] came to 40%.
Turning to `COc1cc(O)c2c(c1)CCc1cc(O)c(OC)cc1-2` [Compound 18, 4,7-dihydroxy-2,6-dimethoxy-9,10-dihydrophenanthrene], the results for the IC50 with oats coleoptile (setting [3]) and in the data set on lettuce seeds (setting [4]) were 180 µg/mL (≈ 661 µM) and 160 µg/mL (≈ 588 µM), respectively.
